For two compounds, inhibition and IC50 results are on record in PMC11514586, “Development of Novel ROCK Inhibitors via 3D-QSAR and Molecular Docking Studies: A Framework for Multi-Target Drug Design” (Pharmaceutics, 2024).

By inhibition is commonly meant the share of the control response that was lost under treatment. A low value points to little suppression. In general, IC50 refers to the concentration at which inhibition is half-maximal. High values mean weaker potency, low ones greater potency.

Holding throughout (format): biochemical
In assay [1] the target is T1, ROCK2 (Homo sapiens, UniProt O75116). Put plainly: radiometric […]-ATP kinase assay, single concentration […], percent inhibition.
The target in assay [2] is T1, ROCK2. Description: radiometric […]-ATP P81 filter binding kinase assay, 10-dose IC50 ([…] ATP).
The next assay has as its target ROCK1 (Homo sapiens, UniProt Q13464). The description is as above.

T1 sequence (O75116 whole entry): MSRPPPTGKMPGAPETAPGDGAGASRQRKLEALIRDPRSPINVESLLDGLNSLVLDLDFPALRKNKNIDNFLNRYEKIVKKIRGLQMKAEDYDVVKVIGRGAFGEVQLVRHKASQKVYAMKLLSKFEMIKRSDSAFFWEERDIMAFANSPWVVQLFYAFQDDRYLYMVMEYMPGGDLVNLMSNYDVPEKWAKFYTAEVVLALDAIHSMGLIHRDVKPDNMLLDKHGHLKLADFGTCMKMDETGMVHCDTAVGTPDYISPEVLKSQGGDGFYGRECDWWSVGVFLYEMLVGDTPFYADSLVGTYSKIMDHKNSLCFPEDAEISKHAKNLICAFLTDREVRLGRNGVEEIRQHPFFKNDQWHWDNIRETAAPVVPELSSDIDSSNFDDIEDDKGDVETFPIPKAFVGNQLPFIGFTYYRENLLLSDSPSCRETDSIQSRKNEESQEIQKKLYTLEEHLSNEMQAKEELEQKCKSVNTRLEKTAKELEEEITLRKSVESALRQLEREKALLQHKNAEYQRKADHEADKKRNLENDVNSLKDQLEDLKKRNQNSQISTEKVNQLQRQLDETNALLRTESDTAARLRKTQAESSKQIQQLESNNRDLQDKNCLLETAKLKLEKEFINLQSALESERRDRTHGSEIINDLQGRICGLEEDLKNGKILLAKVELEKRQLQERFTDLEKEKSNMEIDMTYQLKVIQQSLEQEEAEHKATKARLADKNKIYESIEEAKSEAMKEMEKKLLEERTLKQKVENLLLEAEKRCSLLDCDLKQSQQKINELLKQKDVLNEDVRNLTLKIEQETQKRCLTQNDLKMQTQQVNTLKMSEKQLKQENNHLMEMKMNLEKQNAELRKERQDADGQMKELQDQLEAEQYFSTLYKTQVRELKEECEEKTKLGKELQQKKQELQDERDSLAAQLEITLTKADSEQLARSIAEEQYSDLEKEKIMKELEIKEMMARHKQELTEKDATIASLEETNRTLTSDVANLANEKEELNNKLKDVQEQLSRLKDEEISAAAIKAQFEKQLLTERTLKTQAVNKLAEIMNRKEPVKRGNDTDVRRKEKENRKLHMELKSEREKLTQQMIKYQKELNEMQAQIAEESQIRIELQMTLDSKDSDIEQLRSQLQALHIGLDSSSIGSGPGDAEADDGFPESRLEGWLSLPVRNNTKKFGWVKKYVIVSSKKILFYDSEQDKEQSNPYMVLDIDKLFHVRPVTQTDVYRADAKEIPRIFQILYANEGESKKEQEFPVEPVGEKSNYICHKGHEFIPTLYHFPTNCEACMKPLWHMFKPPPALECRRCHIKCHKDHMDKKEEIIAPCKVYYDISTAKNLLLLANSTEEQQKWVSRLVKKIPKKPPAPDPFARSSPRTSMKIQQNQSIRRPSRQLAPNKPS
ROCK1, sequence (Q13464 2-1354): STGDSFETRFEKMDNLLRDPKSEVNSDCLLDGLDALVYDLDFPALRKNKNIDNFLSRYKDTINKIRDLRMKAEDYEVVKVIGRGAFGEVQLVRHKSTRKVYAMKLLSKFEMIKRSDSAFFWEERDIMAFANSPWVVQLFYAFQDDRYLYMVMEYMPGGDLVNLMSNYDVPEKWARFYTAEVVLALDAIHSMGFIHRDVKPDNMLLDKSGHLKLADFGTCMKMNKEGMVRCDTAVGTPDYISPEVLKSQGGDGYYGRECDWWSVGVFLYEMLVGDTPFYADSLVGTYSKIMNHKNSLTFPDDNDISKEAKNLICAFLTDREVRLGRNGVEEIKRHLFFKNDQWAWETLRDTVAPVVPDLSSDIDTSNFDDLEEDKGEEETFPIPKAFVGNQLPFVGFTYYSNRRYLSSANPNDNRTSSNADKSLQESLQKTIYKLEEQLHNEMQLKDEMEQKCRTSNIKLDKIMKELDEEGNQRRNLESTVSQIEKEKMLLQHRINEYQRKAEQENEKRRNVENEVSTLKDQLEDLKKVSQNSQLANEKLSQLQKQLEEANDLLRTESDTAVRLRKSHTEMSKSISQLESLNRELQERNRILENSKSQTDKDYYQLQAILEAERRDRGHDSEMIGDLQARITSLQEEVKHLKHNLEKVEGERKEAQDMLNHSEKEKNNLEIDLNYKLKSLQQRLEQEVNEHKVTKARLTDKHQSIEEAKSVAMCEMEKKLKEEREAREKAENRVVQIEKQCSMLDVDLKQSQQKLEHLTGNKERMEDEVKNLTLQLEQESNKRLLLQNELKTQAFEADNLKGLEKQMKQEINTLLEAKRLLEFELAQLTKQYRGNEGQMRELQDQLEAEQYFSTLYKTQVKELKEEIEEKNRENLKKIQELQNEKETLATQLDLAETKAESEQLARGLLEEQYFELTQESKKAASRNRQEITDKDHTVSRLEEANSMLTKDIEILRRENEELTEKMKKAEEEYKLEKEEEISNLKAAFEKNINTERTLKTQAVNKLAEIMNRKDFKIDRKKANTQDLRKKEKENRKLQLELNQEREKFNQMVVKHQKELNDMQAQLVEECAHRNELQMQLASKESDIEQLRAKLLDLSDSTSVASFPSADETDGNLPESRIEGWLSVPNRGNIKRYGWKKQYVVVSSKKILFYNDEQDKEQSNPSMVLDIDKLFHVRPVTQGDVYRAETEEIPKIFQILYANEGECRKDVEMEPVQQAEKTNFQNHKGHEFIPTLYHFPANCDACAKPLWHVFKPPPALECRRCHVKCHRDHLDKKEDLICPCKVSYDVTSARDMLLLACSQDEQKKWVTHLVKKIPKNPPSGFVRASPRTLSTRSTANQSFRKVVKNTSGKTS

The compound `COc1cc(CN2CCCN(C(=O)/C=C/c3ccncc3)CC2)ccc1O` [C-22, 1-[4-(4-Hydroxy-3-methoxy-benzyl)-[1,4]diazepan-1-yl]-3-pyridin-4-yl-propenone] registered an inhibition at 10 µM on ROCK2 [1] of 72.5%.

For the compound `Cc1cc(F)ccc1CN1CCCN(S(=O)(=O)c2cccc3cnccc23)CC1` [C-19, 5-[4-(4-Fluoro-2-methyl-benzyl)-[1,4]diazepane-1sulfonyl]-isoquinoline], the half-inhibitory concentration (IC50) at ROCK2 [2] came to 6.13 µM; on ROCK1, 4.22 µM.
